# From PMC12030568, “Binding Affinity of Synthetic Cannabinoids to Human Serum Albumin: Site Characterization and Interaction Insights” (Pharmaceuticals, 2025)
# Entries after “also recorded” stand apart in the source; their conditions may differ.
# Tests used:
# HSA [1] = settings: cited from earlier work
# [2] = target: human serum albumin (HSA) (Homo sapiens, UniProt P02768); test: HPAC zonal elution on CHIRALPAK HSA column, bound fraction determination; settings: for experimental %b to HSA (controls): ACN in mobile phase ranging from 2% to 20%; for Bound Fraction (%b) / Retention factor (k): values at 100% aqueous buffer, extrapolated from log k vs % ACN (11-16%), 67 mM potassium phosphate buffer pH 7.0, 25 °C
# Sequence of human serum albumin (HSA) (P02768 25-609): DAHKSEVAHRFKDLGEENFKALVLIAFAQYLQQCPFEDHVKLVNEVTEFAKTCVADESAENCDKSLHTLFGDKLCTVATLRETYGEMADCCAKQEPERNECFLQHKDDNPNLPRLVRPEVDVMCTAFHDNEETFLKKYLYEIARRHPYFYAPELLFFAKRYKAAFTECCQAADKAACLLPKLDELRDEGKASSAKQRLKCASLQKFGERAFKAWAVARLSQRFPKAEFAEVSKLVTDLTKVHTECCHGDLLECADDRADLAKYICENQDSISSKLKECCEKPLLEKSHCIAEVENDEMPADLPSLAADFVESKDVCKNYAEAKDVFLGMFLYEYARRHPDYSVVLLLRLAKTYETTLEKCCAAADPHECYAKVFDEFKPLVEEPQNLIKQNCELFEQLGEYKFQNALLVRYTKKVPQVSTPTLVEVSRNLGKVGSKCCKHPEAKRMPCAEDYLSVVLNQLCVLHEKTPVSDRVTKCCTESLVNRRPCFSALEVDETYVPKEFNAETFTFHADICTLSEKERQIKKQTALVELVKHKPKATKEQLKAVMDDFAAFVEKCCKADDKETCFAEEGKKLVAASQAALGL
# Experimental: Binding affinity studies were conducted using a series of commercially available synthetic cannabinoids (Figure 1). […] The binding affinity of the synthetic cannabinoids to HSA was measured based on previously established methods using HPAC [15, 35, 36]. […] The analyses were performed using zonal elution in reversed-phase mode. A potassium phosphate buffer solution (67 mM, pH 7.0) was selected as the mobile phase due to HSA’s stability in phosphate buffers, and to closely mimic physiological conditions. Several studies describe the use of this buffer in protein binding studies mimicking the physiological conditions of human plasma.
# ACN was chosen for the HSA studies, as it is one of the most commonly used organic modifiers in HSA columns. However, a low percentage of the organic modifier was necessary to prevent protein denaturation and prolong the column’s lifespan. Additionally, the presence of an organic modifier must be carefully considered, as it can alter the number of available binding sites by affecting the spatial conformation of the protein [41].
# To calculate the bound fraction (%b) to HSA, different proportions of organic modifier were added to the mobile phase, ranging from 11% to 15%. In the Supplementary Materials (Figures S1–S6), representative chromatograms for each synthetic cannabinoid are shown, as examples. […] All analyses were performed in triplicate. […] To determine the %b values in a 100% aqueous buffer, an extrapolation was performed by plotting the logarithm of the retention factor (log k) against the percentage of the organic modifier (Figure S7, Supplementary Materials).
# To determine the experimental %b values for these controls, different proportions of ACN were added to the mobile phase, ranging from 2% to 20%.
# The sample injections (10 µL) were carried out in triplicate, and the flow rate was set to 0.5 mL/min.
# (§1) The analyses were performed in reversed-phase mode using as mobile phases mixtures of 67 mM potassium phosphate buffer solution (pH 7.0) with different proportions of ACN. […] All chromatographic analyses were performed at 25 ± 2 °C, under isocratic mode, with UV detection at 220, 254, and 300 nm. All mobile phases were prepared in a volume/volume ratio (v/v), filtered through polyamide membrane filters of 0.2 µm pore size from Whatman® GmbH (Dassel, Germany), and degassed in an ultrasonic bath (Soltec® Sonica® Ultrasonic cleaner) for at least 15 min before use.
# Zonal analysis was the approach selected for the development of this work. The retention of the analyte is directly related to its interaction with the immobilized HSA, and can be described with Equation (1).(1) k=(KA1n1+…+KAnnn)mL/VM
# The retention factor (k) is related to the number of binding sites and to their corresponding equilibrium constants (KA). VM represents the void volume and mL the total moles of the analyte binding sites. Equation (2) was used to calculate the retention factor [58].(2) k=tr−t0/t0
# tr corresponds to the retention time of the analyte and t0 to the dead time. The t0 was taken from each individual run and was considered to be equal to the solvent front.
# One application of zonal elution in HPAC is to measure the binding affinity of a drug to an immobilized protein.
# HSA site II = target: T1, HSA site II (Homo sapiens, UniProt P02768); test: Zonal displacement chromatography on HSA column with (S)-ibuprofen and L-tryptophan (site II probes); format: binding; settings: 13% ACN; for Interaction with (S)-ibuprofen on HSA: competitor (S)-ibuprofen 5-20 µM in mobile phase, negative slope of 1/k vs concentration; for Binding profile at HSA Site II: competitor L-tryptophan 5-20 µM in mobile phase, plot of 1/k vs competitor concentration
# T1 construct: catalogue number not given
# T1 sequence (P02768 25-609): as above
# Experimental: (§2) To gain deeper insights into HSA binding, displacement studies were conducted to further investigate the binding sites of the synthetic cannabinoids on this protein. […] These competitors are commonly used in displacement studies to elucidate binding interactions at specific HSA sites.
# (§3) Various concentrations of the competitors were added to the mobile phase, based on previous studies.
# (§4) The chromatographic data are plotted as 1/k versus the competitor concentration.
# as §1
# (§5) Stock solutions of all synthetic cannabinoids were prepared in EtOH at the concentration of 0.2 mg/mL and further diluted with the mobile phase, the potassium phosphate buffer (67 mM, pH 7.0), to a final concentration of 50 μg/mL. All working solutions were filtered through a membrane of 0.45 µm pore size and vortexed for at least 30 s before injection. […] All solutions were stored at 4 °C. […] These concentrations were selected based on previous displacement studies. An aqueous buffer of a 67 mM solution of potassium phosphate was prepared by adjusting the pH to 7.0 with a solution of saturated NaOH. The aqueous buffer pH was controlled with a Crison® BasiC 20 pH meter.
# (§6) Equation (5) can be used to describe the impact of the competitor (I) on the retention time of each analyte (A) [32, 58](5) 1/k=VMKI[I]/KAmL+VM/KAmL where KI is the association equilibrium constant of I at the binding site of competition with A, [I] is the concentration of the competitor in the mobile phase, and KA is the association equilibrium constant of A at the binding site of competition with I.
# (§7) If a direct competition between the analyte and the competing agent occurs, a straight line with a positive slope is observed in the plot of 1/k versus [I]; if allosteric competition between the analyte and the competing agent occurs, a straight line with a negative slope is observed in the plot of 1/k versus [I]; and if random variations are observed, no competition between the analyte and the competing agent occurs.
# HSA site I = target: T2, HSA site I (Homo sapiens, UniProt P02768); test: Zonal displacement chromatography on HSA column with warfarin (site I probe); format: binding; settings: competitor warfarin 5-20 µM in mobile phase; 13% ACN; plot of 1/k vs competitor concentration
# T2 construct: catalogue number not given
# T2 sequence (P02768 25-609): as above
# Experimental: as §2, §3, §4, §1, §5, §6, §7
# HSA [3] = settings: cited from earlier work; remark: listed apart in the source
# [4] = parameters: method as in PMID 26810883; settings: ultrafiltration and LC-MS; cited from earlier work
Structure (SMILES),Interaction with (S)-ibuprofen on HSA (HSA site II),Binding profile at HSA Site II (HSA site II),Binding profile at HSA Site I (HSA site I),Bound Fraction (%b) [2] [%],Retention factor (k) [2],also measured
"Cc1ncc([N+](=O)[O-])n1CCO [metronidazole, reference compound]",,,,,,reported %b to HSA (HSA [1]): 20%; experimental %b to HSA (controls) [2]: 19.78%
CC(C)[C@H](NC(=O)c1nn(CC2CCCCC2)c2ccccc12)C(N)=O,exhibits allosteric interactions with (S)-ibuprofen; also recorded: Allosterically interacts with (S)-ibuprofen,bind to both site I and site II of HSA; also recorded: Binding occurs (competition with L-tryptophan),bind to both site I and site II of HSA; also recorded: Binding occurs (competition with warfarin),99.7,294.40,
O=C(c1cccc2ccccc12)c1nc2ccccc2n1CCCCCF [FUBIMINA],,,,99.9,968.23,
"CN(C)CCCN1c2ccccc2Sc2ccc(Cl)cc21 [chlorpromazine, reference compound]",,,,,,reported %b to HSA (HSA [1]): > 90%; experimental %b to HSA (controls) [2]: 82.12%
CCCCCn1nc(C(=O)N[C@H](C(N)=O)C(C)C)c2ccccc21 [AB-PINACA],interact allosterically with (S)-ibuprofen; also recorded: Allosterically interacts with (S)-ibuprofen,do not compete with L-tryptophan; also recorded: Binding does not occur (no competition with L-tryptophan),compete with warfarin for site I; also recorded: Binding occurs (competition with warfarin),98.7,79.11,
"CC(=O)CC(c1ccccc1)c1c(O)c2ccccc2oc1=O (centres unmarked) [Warfarin, warfarin]",,,,,,Affinity constant of competitor for HSA (Lit.) (HSA [3]): KI Warfarin (M^−1) (Lit. 3.3 × 10^5 M^−1) [55]
"Cc1c(C(=O)c2cccc3ccccc23)c2cccc3c2n1[C@H](CN1CCOCC1)CO3 [WIN 55,212-2]",,,,,,plasma protein binding [4]: 95%
CC(C)(C)[C@H](NC(=O)c1nn(Cc2ccc(F)cc2)c2ccccc12)C(N)=O [ADB-FUBINACA],Allosterically interacts with (S)-ibuprofen,neither site I nor site II is its primary binding site in HSA; also recorded: Binding does not occur (no competition with L-tryptophan),neither site I nor site II is its primary binding site in HSA; also recorded: Binding does not occur (no competition with warfarin),99.8,619.87,
COc1ccc2c(c1)c(CC(=O)O)c(C)n2C(=O)c1ccc(Cl)cc1 [indomethacin],,,,,,reported %b to HSA (HSA [1]): 97.8%
COC(=O)[C@@H](NC(=O)c1nn(Cc2ccc(F)cc2)c2ccccc12)C(C)C [AMB-FUBINACA],interact allosterically with (S)-ibuprofen; also recorded: Allosterically interacts with (S)-ibuprofen,do not compete with L-tryptophan; also recorded: Binding does not occur (no competition with L-tryptophan),compete with warfarin for site I; also recorded: Binding occurs (competition with warfarin),99.7,326.38,
COC(=O)[C@@H](NC(=O)c1nn(CCCCCF)c2ccccc12)C(C)C [5F-AMB],interact allosterically with (S)-ibuprofen; also recorded: Allosterically interacts with (S)-ibuprofen,do not compete with L-tryptophan; also recorded: Binding does not occur (no competition with L-tryptophan),compete with warfarin for site I; also recorded: Binding occurs (competition with warfarin),98.9,87.30,
"N[C@@H](Cc1c[nH]c2ccccc12)C(=O)O [L-Tryptophan, L-tryptophan]",,,,,,Affinity constant of competitor for HSA (Lit.) (HSA [3]): KI L-Tryptophan (M^−1) (Lit. 4.4 × 10^4 M^−1) [55]
